Results reported in ChEMBL document CHEMBL1201862, “PubChem BioAssay data set” (2004).
Activity calls are given as the source filed them.

Key:
H9c2 = assay: cells; assay type: functional, cell-based; details: Rattus norvegicus, H9c2, Myocardium
[1] = biological target: DNA repair protein RAD52 homolog (Homo sapiens, UniProt P43351); assay type: functional, biochemical
[2] = biological target: T1, High affinity choline transporter 1 (Homo sapiens, UniProt Q9GZV3); assay: inhibition of SLC5A7-mediated choline transport – cell-based, HEK-293 hCHT, [3H]-choline uptake, dose response (AID 652177); assay type: functional
T1 sequence (Q9GZV3 whole entry): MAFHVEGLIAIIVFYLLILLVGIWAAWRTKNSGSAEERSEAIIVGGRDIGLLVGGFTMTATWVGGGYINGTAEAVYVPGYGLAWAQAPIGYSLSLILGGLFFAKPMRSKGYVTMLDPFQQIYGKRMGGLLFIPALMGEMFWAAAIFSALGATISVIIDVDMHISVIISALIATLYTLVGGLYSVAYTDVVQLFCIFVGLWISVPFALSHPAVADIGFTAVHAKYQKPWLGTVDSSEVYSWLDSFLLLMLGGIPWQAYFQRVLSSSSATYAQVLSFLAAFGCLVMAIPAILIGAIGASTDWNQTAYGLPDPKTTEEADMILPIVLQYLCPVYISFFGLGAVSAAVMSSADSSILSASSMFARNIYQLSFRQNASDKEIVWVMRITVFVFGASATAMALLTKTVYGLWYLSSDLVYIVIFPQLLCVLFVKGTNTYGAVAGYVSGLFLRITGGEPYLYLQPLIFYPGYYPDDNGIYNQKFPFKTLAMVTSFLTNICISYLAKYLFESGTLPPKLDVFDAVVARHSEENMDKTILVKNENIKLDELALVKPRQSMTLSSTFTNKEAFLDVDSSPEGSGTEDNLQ

[3] = Luminescence Cell-Based Dose Retest to Confirm Inhibitors of Cancer Stem Cells. [Related pubchem assays (depositor defined):AID2717, AID2721]; assay type: functional; details: Homo sapiens
[4] = viability loss in HepG2 hepatoma cells – cell-based, ATP luminescence, cherry-pick, activator set 2, cytotoxicity control, dose response (AID 1053143); assay type: functional
Galanin receptor type 3 = Galanin receptor type 3 (Homo sapiens, UniProt O60755); assay: Fluorescence-based cell-based primary high throughput dose response assay to identify antagonists of the Galanin Receptor 3 (GalR3).; assay type: functional
Galanin receptor type 3, sequence (O60755 whole entry): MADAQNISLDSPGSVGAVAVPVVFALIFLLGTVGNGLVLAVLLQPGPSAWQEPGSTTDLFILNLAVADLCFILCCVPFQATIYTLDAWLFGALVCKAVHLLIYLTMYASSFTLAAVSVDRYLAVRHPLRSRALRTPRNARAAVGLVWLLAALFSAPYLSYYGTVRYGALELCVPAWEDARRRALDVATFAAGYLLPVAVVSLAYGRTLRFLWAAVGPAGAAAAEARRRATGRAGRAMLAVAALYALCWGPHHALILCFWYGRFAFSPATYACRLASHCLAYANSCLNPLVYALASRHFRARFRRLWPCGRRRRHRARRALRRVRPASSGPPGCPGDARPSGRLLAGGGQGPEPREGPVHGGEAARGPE

cells = assay type: functional, cell-based; details: HEK-CNG
[5] = HEK-293T viability loss after treatment – luminescence, T-cell screen hits, cytotoxicity control for TCR NF-kB inhibitor project, dose response (AID 489026); assay type: functional, cell-based;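 further: cells exposed to compound about 14 hours before the viability readout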
Large T antigen = Large T antigen (Simian virus 40, UniProt P03070); assay type: functional, Betapolyomavirus macacae;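 further: Confirmatory-stage PubChem screen for compounds that inhibit SV40 T antigen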
Large T antigen, sequence (P03070 whole entry): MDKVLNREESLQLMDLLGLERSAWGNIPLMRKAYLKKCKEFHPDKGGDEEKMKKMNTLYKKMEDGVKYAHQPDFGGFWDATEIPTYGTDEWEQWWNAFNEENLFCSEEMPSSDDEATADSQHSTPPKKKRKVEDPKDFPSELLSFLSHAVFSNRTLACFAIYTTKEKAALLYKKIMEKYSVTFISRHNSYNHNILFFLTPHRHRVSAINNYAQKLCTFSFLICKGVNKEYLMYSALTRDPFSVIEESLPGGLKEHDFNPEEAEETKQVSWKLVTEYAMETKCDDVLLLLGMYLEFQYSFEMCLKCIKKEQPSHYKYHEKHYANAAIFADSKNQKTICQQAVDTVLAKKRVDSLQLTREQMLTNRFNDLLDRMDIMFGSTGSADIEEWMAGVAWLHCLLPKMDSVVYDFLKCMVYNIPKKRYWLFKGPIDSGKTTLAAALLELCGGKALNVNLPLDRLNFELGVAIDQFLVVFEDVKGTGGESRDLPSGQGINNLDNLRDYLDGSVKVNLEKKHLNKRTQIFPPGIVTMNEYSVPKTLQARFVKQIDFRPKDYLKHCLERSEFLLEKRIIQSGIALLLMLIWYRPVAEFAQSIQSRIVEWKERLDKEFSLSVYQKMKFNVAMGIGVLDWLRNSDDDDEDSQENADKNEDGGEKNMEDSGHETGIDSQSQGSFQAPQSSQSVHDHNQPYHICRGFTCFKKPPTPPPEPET

[6] = biological target: 5-hydroxytryptamine receptor 2A (Mus musculus, UniProt P35363); assay type: functional, cell-based;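 further: CHO-K1 cells with tagged receptor and beta-arrestin; agonist potency measured as compound-induced activation of the receptor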
5-hydroxytryptamine receptor 2A, sequence (P35363 whole entry): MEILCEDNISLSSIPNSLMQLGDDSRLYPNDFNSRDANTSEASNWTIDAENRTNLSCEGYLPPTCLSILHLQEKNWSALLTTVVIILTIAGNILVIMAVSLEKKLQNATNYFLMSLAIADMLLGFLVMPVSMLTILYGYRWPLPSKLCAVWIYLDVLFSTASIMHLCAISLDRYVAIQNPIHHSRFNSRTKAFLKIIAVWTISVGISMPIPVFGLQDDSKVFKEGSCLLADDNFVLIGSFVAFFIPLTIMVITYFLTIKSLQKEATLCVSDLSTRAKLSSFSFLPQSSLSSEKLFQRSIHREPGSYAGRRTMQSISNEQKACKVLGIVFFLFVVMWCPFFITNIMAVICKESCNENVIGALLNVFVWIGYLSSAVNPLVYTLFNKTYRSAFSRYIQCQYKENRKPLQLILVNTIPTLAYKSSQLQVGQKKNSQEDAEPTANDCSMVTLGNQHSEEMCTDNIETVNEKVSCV

Protein skinhead-1 = biological target: T2, Protein skinhead-1 (Caenorhabditis elegans, UniProt P34707); assay type: functional
T2 sequence (P34707 whole entry): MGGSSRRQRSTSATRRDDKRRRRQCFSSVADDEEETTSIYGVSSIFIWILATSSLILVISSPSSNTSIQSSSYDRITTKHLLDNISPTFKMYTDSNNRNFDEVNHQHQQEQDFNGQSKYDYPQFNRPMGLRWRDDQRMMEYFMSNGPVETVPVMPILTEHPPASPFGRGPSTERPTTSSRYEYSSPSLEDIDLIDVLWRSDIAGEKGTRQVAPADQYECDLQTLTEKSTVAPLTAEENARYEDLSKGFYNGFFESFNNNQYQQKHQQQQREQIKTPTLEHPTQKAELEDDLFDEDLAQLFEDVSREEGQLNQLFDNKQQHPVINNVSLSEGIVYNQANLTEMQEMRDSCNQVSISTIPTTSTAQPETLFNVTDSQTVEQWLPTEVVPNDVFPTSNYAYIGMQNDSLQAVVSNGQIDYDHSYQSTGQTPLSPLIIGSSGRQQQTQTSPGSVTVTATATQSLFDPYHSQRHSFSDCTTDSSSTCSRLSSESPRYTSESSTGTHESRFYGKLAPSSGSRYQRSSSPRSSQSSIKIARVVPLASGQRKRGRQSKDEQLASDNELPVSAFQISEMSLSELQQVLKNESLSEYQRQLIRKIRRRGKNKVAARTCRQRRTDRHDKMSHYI

[7] = biological target: T3, Trace amine-associated receptor 1 (Homo sapiens, UniProt Q96RJ0); assay: Fluorescence-based cell-based high throughput dose response assay to identify agonists of the human trace amine associated receptor 1 (TAAR1).; assay type: functional
T3 sequence (Q96RJ0 whole entry): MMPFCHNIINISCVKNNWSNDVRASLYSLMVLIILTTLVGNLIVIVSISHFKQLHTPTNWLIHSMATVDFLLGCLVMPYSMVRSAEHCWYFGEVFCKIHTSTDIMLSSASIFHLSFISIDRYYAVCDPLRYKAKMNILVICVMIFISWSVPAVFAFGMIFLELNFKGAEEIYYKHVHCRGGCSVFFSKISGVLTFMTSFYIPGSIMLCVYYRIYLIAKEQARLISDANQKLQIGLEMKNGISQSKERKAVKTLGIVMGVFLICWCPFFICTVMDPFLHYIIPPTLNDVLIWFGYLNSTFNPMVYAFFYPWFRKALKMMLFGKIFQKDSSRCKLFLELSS

[8] = biological target: FAD-linked sulfhydryl oxidase ALR (Homo sapiens, UniProt P55789); assay: ALR-catalysed DTT oxidation blockers – biochemical, H2O2 detection, luminescence, cherry-pick, dose response (AID 493248)
FAD-linked sulfhydryl oxidase ALR, sequence (P55789 whole entry): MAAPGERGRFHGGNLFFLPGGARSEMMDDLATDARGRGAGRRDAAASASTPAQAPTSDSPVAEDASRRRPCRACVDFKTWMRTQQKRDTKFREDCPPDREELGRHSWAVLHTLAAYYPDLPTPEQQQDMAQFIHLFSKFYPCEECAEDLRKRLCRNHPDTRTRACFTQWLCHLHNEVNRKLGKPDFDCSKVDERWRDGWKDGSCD

[9] = biological target: T3, Trace amine-associated receptor 1; assay: Counterscreen for agonists of the human trace amine associated receptor 1 (hTAAR1): Fluorescence-based cell-based high throughput dose response assay to identify hTAAR1 agonist that also desensitize TAAR1 receptor response.; assay type: functional
Mu-type opioid receptor = Mu-type opioid receptor (Homo sapiens, UniProt P35372); assay type: functional, cell-based;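 further: U2OS cells with beta-arrestin recruitment to OPRM1 by beta-gal complementation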
Mu-type opioid receptor, sequence (P35372 whole entry): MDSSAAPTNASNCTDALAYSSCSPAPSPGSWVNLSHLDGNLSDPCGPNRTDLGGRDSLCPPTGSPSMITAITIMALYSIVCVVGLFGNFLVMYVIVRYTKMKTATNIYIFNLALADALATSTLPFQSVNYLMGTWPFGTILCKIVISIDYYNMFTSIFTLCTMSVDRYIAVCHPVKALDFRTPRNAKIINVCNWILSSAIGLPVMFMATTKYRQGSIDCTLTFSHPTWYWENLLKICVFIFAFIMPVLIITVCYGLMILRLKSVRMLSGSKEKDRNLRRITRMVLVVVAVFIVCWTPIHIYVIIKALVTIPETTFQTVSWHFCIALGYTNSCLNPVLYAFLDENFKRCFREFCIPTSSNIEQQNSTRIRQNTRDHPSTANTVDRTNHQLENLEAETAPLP

Fatty acid synthase = Fatty acid synthase (Homo sapiens, UniProt P49327); assay: inhibition of human FAS-TE enzyme activity – biochemical, endpoint fluorescence intensity, powder samples, SAR follow-up (AID 652164); assay type: functional
Fatty acid synthase, sequence (P49327 whole entry): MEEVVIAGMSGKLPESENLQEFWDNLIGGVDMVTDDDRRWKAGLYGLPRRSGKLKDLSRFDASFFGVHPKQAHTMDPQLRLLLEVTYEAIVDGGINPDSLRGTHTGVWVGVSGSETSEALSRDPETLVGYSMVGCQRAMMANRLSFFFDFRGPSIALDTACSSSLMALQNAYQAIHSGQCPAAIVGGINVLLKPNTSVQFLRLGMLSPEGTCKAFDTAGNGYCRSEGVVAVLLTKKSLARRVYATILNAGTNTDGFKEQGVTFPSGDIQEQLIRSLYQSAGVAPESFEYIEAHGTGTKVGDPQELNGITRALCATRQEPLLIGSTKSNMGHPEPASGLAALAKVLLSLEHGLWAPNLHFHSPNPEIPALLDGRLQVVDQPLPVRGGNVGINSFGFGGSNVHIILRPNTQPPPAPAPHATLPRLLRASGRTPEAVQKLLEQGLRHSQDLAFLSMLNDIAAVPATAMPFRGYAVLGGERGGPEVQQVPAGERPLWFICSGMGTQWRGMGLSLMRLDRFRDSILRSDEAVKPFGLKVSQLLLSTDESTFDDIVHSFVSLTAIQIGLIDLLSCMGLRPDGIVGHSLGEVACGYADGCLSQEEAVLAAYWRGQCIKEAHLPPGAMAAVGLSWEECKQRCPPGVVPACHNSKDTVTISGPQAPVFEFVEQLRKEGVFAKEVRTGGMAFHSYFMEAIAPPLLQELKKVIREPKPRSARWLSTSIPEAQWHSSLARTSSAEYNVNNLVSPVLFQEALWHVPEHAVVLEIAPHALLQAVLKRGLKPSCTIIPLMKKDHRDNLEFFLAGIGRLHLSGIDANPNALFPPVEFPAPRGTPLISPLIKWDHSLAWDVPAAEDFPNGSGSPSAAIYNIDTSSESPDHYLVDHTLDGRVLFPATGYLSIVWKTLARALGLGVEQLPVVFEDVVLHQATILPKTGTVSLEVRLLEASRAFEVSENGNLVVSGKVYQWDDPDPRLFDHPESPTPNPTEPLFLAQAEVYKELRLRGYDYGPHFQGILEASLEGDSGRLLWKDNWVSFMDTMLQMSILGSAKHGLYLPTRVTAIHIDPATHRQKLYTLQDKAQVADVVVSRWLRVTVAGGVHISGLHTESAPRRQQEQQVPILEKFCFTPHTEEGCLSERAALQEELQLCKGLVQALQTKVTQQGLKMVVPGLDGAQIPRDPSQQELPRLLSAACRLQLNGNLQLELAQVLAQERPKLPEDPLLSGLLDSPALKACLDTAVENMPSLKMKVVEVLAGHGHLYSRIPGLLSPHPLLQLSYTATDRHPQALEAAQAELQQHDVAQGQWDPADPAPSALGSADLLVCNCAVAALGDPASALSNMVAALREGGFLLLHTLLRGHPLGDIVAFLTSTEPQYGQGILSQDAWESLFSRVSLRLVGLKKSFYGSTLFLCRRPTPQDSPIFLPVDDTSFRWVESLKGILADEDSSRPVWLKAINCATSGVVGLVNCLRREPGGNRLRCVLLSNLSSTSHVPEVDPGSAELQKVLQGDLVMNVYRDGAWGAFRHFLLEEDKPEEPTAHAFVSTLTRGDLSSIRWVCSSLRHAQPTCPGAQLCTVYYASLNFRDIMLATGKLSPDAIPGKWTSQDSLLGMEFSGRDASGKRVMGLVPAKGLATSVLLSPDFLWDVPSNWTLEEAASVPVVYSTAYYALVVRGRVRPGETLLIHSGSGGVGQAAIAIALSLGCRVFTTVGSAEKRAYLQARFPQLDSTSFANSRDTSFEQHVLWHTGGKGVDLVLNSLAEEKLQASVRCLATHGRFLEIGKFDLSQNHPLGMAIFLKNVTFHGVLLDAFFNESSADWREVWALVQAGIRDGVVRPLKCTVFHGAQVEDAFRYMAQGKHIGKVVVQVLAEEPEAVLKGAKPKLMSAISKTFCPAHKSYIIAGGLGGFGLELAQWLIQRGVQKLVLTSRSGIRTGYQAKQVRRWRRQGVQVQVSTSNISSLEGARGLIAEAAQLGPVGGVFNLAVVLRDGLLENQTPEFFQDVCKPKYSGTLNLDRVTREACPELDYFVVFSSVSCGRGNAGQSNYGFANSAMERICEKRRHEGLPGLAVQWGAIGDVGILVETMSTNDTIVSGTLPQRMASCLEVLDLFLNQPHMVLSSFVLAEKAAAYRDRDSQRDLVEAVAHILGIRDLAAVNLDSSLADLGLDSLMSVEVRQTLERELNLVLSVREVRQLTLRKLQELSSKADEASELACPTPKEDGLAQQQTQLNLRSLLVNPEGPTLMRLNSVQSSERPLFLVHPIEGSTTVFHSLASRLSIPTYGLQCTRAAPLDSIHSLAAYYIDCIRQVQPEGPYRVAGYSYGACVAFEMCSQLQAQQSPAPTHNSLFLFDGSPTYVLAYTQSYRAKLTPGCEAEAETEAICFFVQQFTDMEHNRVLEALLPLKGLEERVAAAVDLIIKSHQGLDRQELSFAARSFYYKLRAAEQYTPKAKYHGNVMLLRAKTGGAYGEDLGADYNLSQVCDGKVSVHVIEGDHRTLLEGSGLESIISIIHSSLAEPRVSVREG

[10] = activation of miR-122 Renilla sensor silencing – cell-based, Huh7 psiCHECK-miR122, Renilla luciferase, cherry-picked, dose response (AID 651956); assay type: functional;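 further: huh7 hepatoma cells stably carrying a psiCHECK-2 miR-122 sensor plasmid; renilla luciferase signal reporting endogenous miR-122 activity after 48 h compound exposure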
[11] = general mammalian cell viability loss – inhibitor set, cherry-pick, set 2, cytotoxicity control for miR-122 modulator project, dose response (AID 720697); assay type: functional, cell-based
INS1 = assay: INS-1E survival protection against cytokine death – cell-based, luminescence, retest, dose response (AID 449756); assay type: functional; details: Rattus norvegicus;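 further: cell death triggered by IL-1 beta plus TNF-alpha plus IFN-gamma mixture; protective hits raise ATP signal compared with cytokine alone wells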
[12] = Luminescence-based dose response cell-based high throughput screening assay for cytotoxic compounds using the IEC-6 intestinal epithelial cell line. [Related pubchem assays: 1858 (Summary AID.), 1825 (Counterscreen.), 1907 (Confirmation screen.)]; assay type: functional
[13] = biological target: Matrix metalloproteinase-14 (Homo sapiens, UniProt P50281); assay: Dose Response confirmation of uHTS hits for a small molecule inhibitors of MT1-MMP activation in a fluorescence assay set 1.; assay type: functional

## COc1ccc2c(c1OC)c(=O)n1c3ccc(OC(C)C(=O)NCCN4CCOCC4)cc3c3ccnc2c31 (stereo not drawn)
H9c2
  IC50: 21.3 µM (active)
[1]
  AC50: 4.31 µM (active)

## COc1ccc(C(=O)NCc2cc(C)n(C)n2)cc1OC1CCN(C(C)C)CC1
[2]
  IC50: 65.5 µM (inconclusive)

## Cc1ccc(C(=O)Nc2ncc(Cc3ccccc3)s2)o1
[3]
  AC50: 0.319 µM (active)
[4]
  AC50: 12 µM (active)

## CCn1cc(C(=O)NC2CCCc3c2cnn3-c2cccc(C)c2C)cn1 (stereo not drawn)
Galanin receptor type 3
  IC50: 0.874 µM (active)
cells
  EC50: > 29.9 µM (inactive)
[5]
  IC50: > 80 µM (inactive)

## Oc1cc2c(c(Cl)c1O)CCNCC2c1ccccc1 (stereo not drawn)
Galanin receptor type 3
  IC50: 3.83 µM (active)
Large T antigen
  IC50: > 100 µM (active)
[6]
  EC50: 8.14 µM (active)
Protein skinhead-1
  IC50: > 100 µM (inactive)
[7]
  EC50: 6.54 µM (active)
[8]
  AC50: 3.83 µM (active)
[9]
  IC50: > 29.9 µM (inactive)
Mu-type opioid receptor
  EC50: 92.5 µM (inactive)

## CCCCC(=O)Nc1nc(-c2ccc(C(=O)N3CCOCC3)cc2)cs1
Fatty acid synthase
  IC50: 35.3 µM (inactive)

## Cc1ccc(-c2nc(C(Cl)Cl)c3ccccc3n2)cc1
[10]
  AC50: 20 µM (active)
[11]
  AC50: 10.1 µM (active)
INS1
  AC50: 4.53 µM (active)
[3]
  AC50: 1.1 µM (active)
[12]
  IC50: 0.373 µM (active)

## CCOc1ccc2nc(NN=C3C(=O)NC(=S)NC3=O)sc2c1
[13]
  IC50: 13.9 µM (active)
